According to PMC10591846 (Cell reports, 2023):

Legend:
Pirh2 = biological target: T1, Pirh2 (Homo sapiens, UniProt Q96PM5); experiment: In vitro peptide binding to Pirh2; details: Figure S12
T1 sequence (Q96PM5 1-261): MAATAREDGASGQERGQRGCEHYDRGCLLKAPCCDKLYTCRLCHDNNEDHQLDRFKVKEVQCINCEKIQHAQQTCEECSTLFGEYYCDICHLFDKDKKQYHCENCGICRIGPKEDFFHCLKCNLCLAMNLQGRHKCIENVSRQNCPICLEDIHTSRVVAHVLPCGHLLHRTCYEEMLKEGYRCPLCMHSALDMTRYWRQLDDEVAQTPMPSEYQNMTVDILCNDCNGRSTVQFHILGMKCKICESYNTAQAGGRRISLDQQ

KLHDC10 = experiment: In vitro peptide binding to KLHDC10; details: Figure S12

binding to Pirh2 in vitro (Pirh2): did not bind | binding to KLHDC10 in vitro (KLHDC10): did not bind
Sequence: KHKLEQLRNSCA
